The source of these data is patent EP2019109A1, “Trimetal-arene clusters with anticancer activity” (Université de Neuchâtel, priority 2007, dated 2009).

Data set [1] has as its system A2780 ovarian carcinoma cell line. In words: MTT assay, inhibition of cell viability. Particulars: for IC50: A2780 ovarian carcinoma cell line, 72 hours of incubation, MTT assay; for cytotoxic activity (in words): A2780, statement drawn from Table 1. It counts as cell-based. As for the experimental part: (§1) The effects of the clusters on the cancer cell growth were evaluated after an exposure period of 72 hours using the MTT [3-(4,5-dimethylthiazol-2-yl)-2,5-diphenyltetrazolium bromide] assay which measures mitochondrial dehydrogenase activity as an indication of cell viability. In addition, the dose-response curves for 1a and 1b against the two cell lines are illustrated in Figures 2a and 2b. Table 1. Inhibition of cell viability (IC50) of complexes on A2780 and A2780cisR ovarian carcinoma cell lines after 72 hours of incubation, determined using MTT assay.
In general terms: Formazan colour is commonly taken as a measure of viable cells.

For data set [2], the system named is A2780cisR ovarian carcinoma cell line. In words: MTT assay, inhibition of cell viability. It is filed as cell-based. Particulars: for IC50: cisplatin-resistant A2780cisR ovarian carcinoma cell line, 72 hours of incubation, MTT assay; for cytotoxic activity (in words): A2780cisR, statement drawn from Table 1. As for the experimental part: as §1

As a reminder, the IC50 is the midpoint of a concentration-inhibition curve. Read a low IC50 as greater potency in that assay. Regarding `N.N.[Cl][Pt][Cl]` [Cisplatin, reference compound], the IC50 in data set [1] was found to be 1.5 ± 0.3 µM; in data set [2], 8.7 ± 1.6 µM. In data set [2] (A2780cisR versus A2780), the “increase in cisplatin resistance” value turned out to be 6 fold.

As to `Cc1ccc(C(C)C)cc1.[Cl][Ru]([Cl])[PH]12CN3CN(CN(C3)C1)C2` [RAPTA-C, reference compound], the IC50 in data set [1] and in data set [2] was over 100 µM in each case.

Consider “[(η^6-C6H5Me)4Ru4(µ-H)4][BF4]2 [Compound 2b]”, for which the IC50 in data set [1] and in data set [2] was over 100 µM in each case.

For the compound “[(η^6-C6H6)4Ru4(µ-H)3(µ-OH)][Cl]2 [Compound 2c]”, the IC50 in data set [1] and in data set [2] was over 100 µM in each case.

In the case of “[(η^6-C6H6)4Ru4(µ-H)4][BF4]2 [Compound 2a]”, the IC50 in data set [1] and in data set [2] was over 100 µM throughout.

Regarding “[(η^6-C6H6)(η^6-1,4-^iPrC6H4Me)(η^6-C6Me6)Ru3(µ-H)3(µ3-O)][BF4] [Compound 1b]”, the “cytotoxic activity (in words)” value in data set [1] and in data set [2] was “remarkably active” each time. The results for the IC50 in data set [1] and in data set [2] were 9.1 ± 0.9 µM and 28.9 ± 2.8 µM, respectively.

On to “[(η^6-C6H6)(η^6-C6Me6)2Ru3(µ-H)3(µ3-O)][BF4] [Compound 1a]”, for which, in data set [1], the “cytotoxic activity (in words)” value is listed as “remarkably active” and the half-maximal inhibitory concentration (IC50) turned out to be 9.8 ± 0.2 µM. Moreover, in data set [2], the “cytotoxic activity (in words)” value is recorded as “remarkably active” and 14.6 ± 0.7 µM corresponded to half-maximal inhibition (IC50).
